# Legend:
# [1] = system: M14; settings: single dose 10 μM; melanoma
# [2] = system: 786–0; settings: single dose 10 μM; renal carcinoma
# [3] = system: KM12; settings: single dose 10 μM; colon cancer
# [4] = system: UACC-62; settings: single dose 10 μM; melanoma
# [5] = system: HL-60(TB); settings: single dose 10 μM; leukemia
# [6] = system: CAKI-1; settings: single dose 10 μM; renal carcinoma
# [7] = system: EKVX; settings: single dose 10 μM; non-small lung carcinoma
# [8] = system: MDA-MB-435; settings: single dose 10 μM; melanoma
# [9] = system: MCF7; settings: single dose 10 μM; breast carcinoma
# [10] = system: UO-31; settings: single dose 10 μM; renal carcinoma
# [11] = system: A498; settings: single dose 10 μM; renal carcinoma
# [12] = system: OVCAR-5; settings: single dose 10 μM; ovarian carcinoma
# [13] = system: SW-620; settings: single dose 10 μM; colon cancer
# [14] = system: UACC-257; settings: single dose 10 μM; melanoma
# [15] = system: MDA-MB-468; settings: single dose 10 μM; breast carcinoma
# [16] = system: MOLT-4; settings: single dose 10 μM; leukemia
# [17] = system: NCI-H23; settings: single dose 10 μM; non-small lung carcinoma
# [18] = system: SF-268; settings: single dose 10 μM; CNS cancer
# [19] = system: SN12C; settings: single dose 10 μM; renal carcinoma
# [20] = system: SF-295; settings: single dose 10 μM; CNS cancer
# [21] = system: A549/ATCC; settings: single dose 10 μM; non-small lung carcinoma
# [22] = system: SNB-19; settings: single dose 10 μM; CNS cancer
# [23] = system: OVCAR-4; settings: single dose 10 μM; ovarian carcinoma
# [24] = system: TK-10; settings: single dose 10 μM; renal carcinoma
# [25] = system: NCI 60 cancer cell line panel; assay: NCI 60 full panel summary; settings: single dose 10 μM; mean over the NCI 60 panel
# [26] = system: SR; settings: single dose 10 μM; leukemia
# [27] = system: MALME-3M; settings: single dose 10 μM; melanoma
# [28] = system: SNB-75; settings: single dose 10 μM; CNS cancer
# [29] = system: SF-539; settings: single dose 10 μM; CNS cancer
# [30] = system: K-562; settings: single dose 10 μM; leukemia
# [31] = system: NCI-H522; settings: single dose 10 μM; non-small lung carcinoma
# [32] = system: RPMI-8226; settings: single dose 10 μM; leukemia
# [33] = system: HCT-15; settings: single dose 10 μM; colon cancer
# [34] = system: HOP-92; settings: single dose 10 μM; non-small lung carcinoma
# [35] = system: PC-3; settings: single dose 10 μM; prostate carcinoma
# [36] = system: SK-OV-3; settings: single dose 10 μM; ovarian carcinoma
# [37] = system: HT29; settings: single dose 10 μM; colon cancer
# [38] = system: BT-549; settings: single dose 10 μM; breast carcinoma
# [39] = system: HCT-116; settings: single dose 10 μM; colon cancer
# [40] = system: CCRF-CEM; settings: single dose 10 μM; leukemia
# [41] = system: SK-MEL-2; settings: single dose 10 μM; melanoma
# [42] = system: HCC-2998; settings: single dose 10 μM; colon cancer
# [43] = system: U251; settings: single dose 10 μM; CNS cancer
# [44] = system: HOP-62; settings: single dose 10 μM; non-small lung carcinoma
# [45] = system: SK-MEL-5; settings: single dose 10 μM; melanoma
# [46] = system: SK-MEL-28; settings: single dose 10 μM; melanoma
# [47] = system: NCI-H226; settings: single dose 10 μM; non-small lung carcinoma
# [48] = system: T-47D; settings: single dose 10 μM; breast carcinoma
# [49] = system: OVCAR-8; settings: single dose 10 μM; ovarian carcinoma
# [50] = system: ACHN; settings: single dose 10 μM; renal carcinoma
molecule,measurement,setting,value
3-(5-(Benzofuran-2-yl)-1-phenyl-1H-pyrazol-3-yl)-1-phenylprop-2-en-1-one [2a],GI%,[1],0.52%
same,GI%,[2],1.14%
same,GI%,[3],1.62%
same,GI%,[4],2.28%
same,GI%,[5],7.64%
same,GI%,[6],15.01%
same,GI%,[7],0.89%
same,GI%,[8],0.51%
same,GI%,[9],5.38%
same,GI%,[10],7.39%
same,GI%,[11],1.16%
same,GI%,[12],0.37%
same,GI%,[13],0.70%
same,GI%,[14],5.50%
same,GI%,[15],0.19%
same,GI%,[16],3.22%
same,GI%,[17],1.16%
same,GI%,[18],4.98%
same,GI%,[19],0.82%
same,GI%,[20],5.84%
same,GI%,[21],4.22%
same,GI%,[22],4.72%
same,GI%,[23],1.64%
same,GI%,[24],5.20%
same,Mean GI%,[25],0.37%
same,GI%,[26],17.52%
same,GI%,[27],1.12%
same,GI%,[28],19.77%
same,GI%,[29],0.23%
same,GI%,[30],5.10%
same,GI%,[31],3.81%
"c1ccc(C2=NNC(c3cn(-c4ccccc4)nc3-c3cc4ccccc4o3)C2)cc1 (stereo not shown) [3a, 3-(Benzofuran-2-yl)-4-(3-phenyl-4,5-dihydro-1H-pyrazol-5-yl)-1-phenyl-1H-pyrazole]",GI%,[1],0.57%
same,GI%,[32],2.58%
same,GI%,[33],75.31%
same,GI%,[3],62.60%
same,GI%,[4],7.34%
same,GI%,[5],0.73%
same,GI%,[6],11.52%
same,GI%,[34],22.19%
same,GI%,[35],8.08%
same,GI%,[7],6.43%
same,GI%,[8],−6.37%
same,GI%,[36],8.93%
same,GI%,[9],7.06%
same,GI%,[10],14.55%
same,GI%,[37],54.87%
same,GI%,[11],6.22%
same,GI%,[38],0.80%
same,GI%,[12],3.74%
same,GI%,[13],79.60%
same,GI%,[14],6.06%
same,GI%,[39],99.83%
same,GI%,[40],12.98%
same,GI%,[16],0.33%
same,GI%,[41],−6.14%
same,GI%,[19],12.27%
same,GI%,[20],9.51%
same,GI%,[21],3.63%
same,GI%,[42],66.78%
same,GI%,[43],2.33%
same,GI%,[44],2.07%
same,GI%,[22],5.98%
same,GI%,[45],0.18%
same,GI%,[24],10.65%
same,Mean GI%,[25],2.24%
same,GI%,[46],2.00%
same,GI%,[26],15.96%
same,GI%,[27],3.67%
same,GI%,[28],−10.52%
same,GI%,[29],6.00%
same,GI%,[30],6.49%
same,GI%,[47],8.13%
same,GI%,[31],3.69%
same,GI%,[48],10.71%
"COc1ccc(C2=NNC(c3cn(-c4ccccc4)nc3-c3cc4ccccc4o3)C2)cc1 (stereo not shown) [3b, 3-(Benzofuran-2-yl)-4-(3-(4-methoxyphenyl)-4,5-dihydro-1H-pyrazol-5-yl)-1-phenyl-1H-pyrazole]",GI%,[1],4.94%
same,GI%,[32],7.55%
same,GI%,[33],1.12%
same,GI%,[4],8.16%
same,GI%,[5],2.83%
same,GI%,[6],17.83%
same,GI%,[49],1.00%
same,GI%,[34],3.27%
same,GI%,[35],12.08%
same,GI%,[7],0.52%
same,GI%,[36],6.45%
same,GI%,[9],2.03%
same,GI%,[10],26.14%
same,GI%,[11],2.47%
same,GI%,[38],4.37%
same,GI%,[15],7.03%
same,GI%,[40],17.25%
same,GI%,[16],8.04%
same,GI%,[20],1.43%
same,GI%,[44],4.32%
same,GI%,[22],2.46%
same,GI%,[24],3.17%
same,Mean GI%,[25],0.8%
same,GI%,[26],7.24%
same,GI%,[27],4.88%
same,GI%,[28],0.28%
same,GI%,[29],4.09%
same,GI%,[30],7.50%
same,GI%,[50],5.79%
same,GI%,[47],1.48%
same,GI%,[31],0.82%
same,GI%,[48],2.60%
